Experimental data as given in US20220105183A1, “MICRO-NANO STRUCTURE FORMED BY SELF-ASSEMBLING ORGANIC SMALL MOLECULE COMPOUND AND USE THEREOF” (Qingdao University of Science and Technology, priority 2018, published 2022).

How the values were obtained:
[1] = UV absorption, fluorescence emission and quantum yield in solutions of different polarities; type: physicochemical
Method: The Compound II-1 of the present invention was prepared as a 2 mM storage solution in DMSO, and then 10 μL was added to 2 mL of solutions with different polarities (including water, dimethyl sulfoxide, N,N-dimethylformamide, methanol, ethanol, acetone, methylene chloride, acetonitrile), a UV spectrophotometer was used to test the UV absorption and to find the maximum absorption wavelength. The molar extinction coefficient of II-1 in solutions of different polarities was calculated from the ultraviolet absorption spectrum. Excited by the maximum absorption wavelength, the fluorescence emission spectrum was tested by a fluorescence spectrometer, the data was plotted with origin and the integral area was calculated. The fluorescence quantum yield φx, φx=φs(Fx/Fs)(As/Ax)(λexs/λexx)(nx/ns)^2, was calculated from the obtained data to obtain the characteristic parameters of Compound II-1 in solutions of different polarities (Table 3).

[2] = DLS particle size / self-assembly of the compounds in aqueous solution; type: physicochemical; conditions: micro-nano structure, 20 μM working solution in deionized water
Method: The term “particle size” refers to the size of particles, also known as “granularity” or “diameter”. When a certain physical characteristic or physical behavior of the measured particle is closest to a homogeneous sphere (or combination) of a certain diameter, the diameter (or combination) of the sphere is taken as the equivalent particle size of the measured particle. The particle size parameter of the micro-nano structure of the present invention is measured by the principle of dynamic light scattering (DLS), specifically measured by a laser particle size analyzer.
(§1) Taking the self-assembled micro-nano structure of Compound II-1 as an example, II-1 was dissolved in DMSO (also can be an organic solvent such as ethanol) to prepare a 2 mM storage solution, and a small amount of storage solution was added to deionized water to prepare 20 μM working solution. Took 10 μL and dropped it on copper mesh, observed and analyzed under transmission electron microscope (TEM), cryo-transmission electron microscope. Took 10 μL and dropped it on mica plate, observed and analyzed under atomic force microscope (AFM). In FIGS. 5, A, B, C and D were TEM photographs, cryo-transmission electron microscope photographs, AFM photographs, and AFM analysis data, respectively. According to the photographs and data, II-1 was self-assembled into nanosheets with a diameter of 40-70 nm and a thickness of 3.7-3.9 nm. […]
Among them, the particle size test results of II-12 to II-15 in aqueous solution are shown in FIG. 6, and the results of dynamic light scattering DLS of II-16 to 1-18 are shown in FIG. 7).

[3] = test system: 4T1 cells; assay: Photoacoustic imaging in subcutaneous metastasis model mice; type: in vivo, nude mice; conditions: 200 μL (300 μmoL) tail vein, multispectral photoacoustic tomography
Method: The left side of 6-week-old female nude mice was injected subcutaneously with […] 4T1 cells to grow the tumor volume to 60 mm^3.
200 μL II-1 (300 μmoL) was injected into the mice of the experimental group through the tail vein. Monitored with multispectral photoacoustic tomography at different times. […] With the increase of time, until 24 hours, there was a photoacoustic signal at the tumor site.

[4] = TEM, cryo-TEM and AFM of the self-assembled micro-nano structure; type: physicochemical
Method: as §1

[5] = Photothermal effect in vitro under 808 nm laser irradiation; type: physicochemical; conditions: for light-to-heat conversion efficiency: 808 nm laser; for temperature raised by / temperature reached: 808 nm laser 5 minutes; for temperature reached: from room temperature 30° C.
Method: A total of 4 groups of samples, 3 mL was taken and added to a cuvette respectively, and the lid was sealed.
The sample No. 2 was 10 μM II-1, and the specific preparation method is 3 mL deionized water plus 15 μL II-1 stock solution (2 mM, dissolved in DMSO);
The sample No. 3 was 20 μM II-1, and the specific preparation method was that 3 mL deionized water was added 30 μL II-1 stock solution (2 mM, dissolved in DMSO);
The sample No. 4 was 40 μM II-1, and the specific preparation method was that 3 mL deionized water was added 60 μL II-1 stock solution (2 mM, dissolved in DMSO).
Each sample was irradiated with an 808 nm laser for 5 minutes, and the temperature data was recorded every 5 seconds with a thermal imager, and the temperature corresponding to the time was plotted in origin, as shown in the left figure of FIG. 8. […] The temperature of sample No. 2 increased from room temperature 30° C. to 54° C., and the temperature was raised by 24° C. The temperature of sample No. 3 increased from room temperature 30° C. to 62° C., and the temperature was raised by 32° C. The temperature of sample No. 4 increased from room temperature 30° C. to 77° C., and the temperature was raised by 47° C.
Using a method similar to Example 8, 10 μM, 20 μM and 40 μM samples of II-16, II-17 and II-18 were prepared, respectively, they were irradiated under an 808 nm (2.6 W/cm-2) laser for 10 minutes. 40 μM II-16 to 18 samples can rise by 40° C., 36° C. and 18° C. respectively within 10 minutes under laser irradiation.
Using a method similar to that in Example 8, three samples of 20 μM of 1-16, II-17 and II-18 in water were irradiated with 808 nm (2.6 W/cm-2) laser for 10 minutes, and the light-to-heat conversion efficiency calculation result thereof were shown in FIG. 10. […] And II-18 not only has poor light-heat effect, but also has low light-heat conversion efficiency, only 12.9%.

[6] = 20 μM in deionized water, TEM/AFM
[7] = sample No. 2, 10 μM in deionized water
[8] = sample No. 3, 20 μM in deionized water
[9] = sample No. 4, 40 μM in deionized water

What does the source list for `CCN1C(=CC=C2CCCC(C=CC3=C(C#N)C(=C(C#N)C#N)OC3(C)C)=C2Cl)C(C)(C)c2ccccc21` [II-1]?
Φ (fluorescence quantum yield) ([1]; N,N-dimethylformamide): 0.19%; ε*10^4 ([1]; N,N-dimethylformamide): 7.92 M^−1cm^−1; λem ([1]; N,N-dimethylformamide): 853 nm; λmax ([1]; N,N-dimethylformamide): 844 nm; Φ (fluorescence quantum yield) ([1]; acetone): 0.29%; ε*10^4 ([1]; acetone): 8.91 M^−1cm^−1; λem ([1]; acetone): 851 nm; λmax ([1]; acetone): 832 nm; Φ (fluorescence quantum yield) ([1]; acetonitrile): 0.35%; ε*10^4 ([1]; acetonitrile): 9.15 M^−1cm^−1; λem ([1]; acetonitrile): 850 nm; λmax ([1]; acetonitrile): 832 nm; Φ (fluorescence quantum yield) ([1]; dichloromethane): 0.35%; ε*10^4 ([1]; dichloromethane): 8.55 M^−1cm^−1; λem ([1]; dichloromethane): 850 nm; λmax ([1]; dichloromethane): 834 nm; Φ (fluorescence quantum yield) ([1]; dimethyl sulfoxide): 0.12%; ε*10^4 ([1]; dimethyl sulfoxide): 10.24 M^−1cm^−1; λem ([1]; dimethyl sulfoxide): 854 nm; λmax ([1]; dimethyl sulfoxide): 848 nm; Φ (fluorescence quantum yield) ([1]; ethanol): 0.25%; ε*10^4 ([1]; ethanol): 10.74 M^−1cm^−1; λem ([1]; ethanol): 851 nm; λmax ([1]; ethanol): 828 nm; Φ (fluorescence quantum yield) ([1]; methanol): 0.19%; ε*10^4 ([1]; methanol): 11.24 M^−1cm^−1; λem ([1]; methanol): 850 nm; λmax ([1]; methanol): 830 nm; Φ (fluorescence quantum yield) ([1]; water): 0.11%; ε*10^4 ([1]; water): 2.76 M^−1cm^−1; λem ([1]; water): 840 nm; λmax ([1]; water): 730 nm; DLS particle size peak (nm) [2]: 104 nm; DLS particle size range (nm) [2]: 33-266 nm; time at which a clear photoacoustic signal was found at the tumor site [3]: 4 h; time until which there was a photoacoustic signal at the tumor site [3]: 24 h; nanosheet diameter [4, 6]: 40-70 nm; nanosheet thickness [4, 6]: 3.7-3.9 nm; Morphology ([4]; micro-nano structure in aqueous solution, AFM and TEM): nano-sheet; light-to-heat conversion efficiency [5, 7]: 60.4%; temperature raised by [5, 7]: 24 °C; temperature reached ([5]; sample No. 2, 10 μM): 54 °C; light-to-heat conversion efficiency [5, 8]: 61%; temperature raised by [5, 8]: 32 °C; temperature reached ([5]; sample No. 3, 20 μM): 62 °C; light-to-heat conversion efficiency [5, 9]: 60%; temperature raised by [5, 9]: 47 °C; temperature reached ([5]; sample No. 4, 40 μM): 77 °C
